The values that follow come from US20240174642A1, “HETEROCYCLIC COMPOUNDS CAPABLE OF ACTIVATING STING” (Boehringer Ingelheim International GmbH, priority 2022, published 2024).

One experiment deals with dog STING (dSTING). The experiment can be described thus: Dog differential scanning fluorimetry (DSF) assay, thermal shift of dog STING protein. The settings on record: 100 μM compound, 3 μM recombinant dog STING (residues 149 to 375), 5× SYPRO Orange, 2% DMSO. The format is binding. An excerpt:
The protein used for the biophysical experiments was a recombinant dog STING protein comprising its cytosolic cGAMP binding ectodomain. A codon optimized DNA sequence (for expression in Escherichia coli) encoding amino acid residues 149 to 375 of dog STING was synthesized by GeneArt (Regensburg, Germany) and inserted into a pET17b E. coli expression vector. The protein construct encodes an N-terminal 8× His-tag followed by tobacco etch virus protease (TEV) cleavage site and the above STING gene sequence. The resulting protein sequence for the used dog STING protein (SEQ ID No. 1) is listed below:
For expression of the above recombinant dog STING, the construct was transformed into E. coli BL21 DE3 strain and grown in shake flasks in LB-medium at 15° C. Expression was induced by addition of isopropyl β-D-1-thiogalactopyranoside to a final concentration of 1 mM and cultures shaken overnight. Cell pellets were centrifuged and stored at −70° C. until further use. Protein was purified by cell thawing in lysis buffer (20 mM TRIS-HCl, pH 8, 500 mM NaCl, 1 mM DTT, 0.5 mg/ml lysozyme, Complete Protease Inhibitor (Roche) and DNase (Roche)), followed by metal affinity purification using Ni-NTA resins and elution buffer consisting of 20 mM TRIS-HCl, pH 8, 500 mM NaCl, 1 mM DTT, 300 mM imidazole. Cleavage of the His-Tag using TEV-protease took place during dialysis in size exclusion buffer (20 mM TRIS-HCl, pH 8, 100 mM NaCl, 1 mM DTT) over night. To further purify the target protein a reverse Nickel affinity column was used and the flow through was applied to a size exclusion chromatography. The peak fraction was collected and concentrated to 5 mg/mL.
Dye fluorescence is quenched in aqueous environment and increases upon association of the dye with the hydrophobic parts of the unfolding protein. […] The inflection point of the curve represents the “melting” temperature of the protein (Tm) which is calculated numerically using the Boltzmann equation.
The thermal stability of the dog STING protein was measured in assay buffer containing 20 mM Tris, 150 mM NaCl at pH7.5. The assay uses 384-Well qPCR Plates (Catalog #781358, BRAND), Microseal®‘B’ Adhesive Seals for PCR Plates (Catalog #MSB-1001, BIO-RAD) and was run on a CFX384 Real-Time System (Bio-Rad). A DMSO stock solution of SYPRO orange (SIGMA 55692-500UL) was prepared. Compound stock solutions (10 mM in DMSO) were diluted 1:2 in DMSO to an intermediate compound concentration of 5 mM and then further diluted 1:40 in assay buffer resulting in a compound concentration of 125 μM and 2.5% DMSO. Fluorescent dye stock solution (5000× SYPRO Orange) was then mixed with target protein and buffer to a concentration of 15 μM Protein and 25× SYPRO Orange. 2 μl of this protein-dye-mixture was added to 8 μl compound solution. Final volume was 10 μL. 3-6 well positions were used as negative control (protein with 2% DMSO). The plates were prepared for duplicate measurement and centrifuged for 2 min at 1000 g. In the measurement, 160 cycles of 0.5° C. were used (temperature ramp 15 s/cycle, 15° C. to 95° C.).
Final Assay concentrations for compound characterization were 100 μM compound, 3 μM target protein, 5× SYPRO Orange, and 2% DMSO in 10 μl. All dispensing steps were performed using a HamiltonStar pipetting robot (Hamilton).
Dissociation curves were processed in Bio-Rad CFX Manager. Peak type was set to “negative”. Compound codes for screen were assigned in the plate layout.
Two replicates of TM measurements were averaged, and the standard deviation was calculated. In cases of SD>1.5° C. the measurement was repeated.
The melting point (Tm) obtained for STING protein alone was subtracted from T obtained for protein incubated with ligand to generate ΔTm values.
(DSF heats the sample and reads unfolding from a dye or from intrinsic fluorescence.)

In a further experiment the test system is STING. The experiment can be described thus: Dog whole blood (dWB) assay, IFNb secretion by ELISA. The format is cell-based. The conditions noted are these: 4 h incubation at 37° C., % control relative to cGAMP stimulated control, read-out: EC50, cytokine secretion in dog whole blood (dWB) culture system as determined by canine Interferon-beta (IFNb) ELISA. Here is the method: In this assay, freshly collected canine blood is incubated with a STING agonist, and interferon beta levels in the supernatant are quantified by ELISA. […] In accordance with the invention, a combination of a high dDSF and low dWB is especially favorable.
For the detection of STING activation in physiological environment dog whole blood (dWB) was stimulated by the cyclic dinucleotide cGAMP or a test compound. Pathway activity was monitored by measuring the IFNb production.
Compounds were delivered as 10 mM DMSO solution, diluted and transferred by using an Echo acoustic dispenser to the 384well assay plate (Greiner #781182), pre-filled with 10 μl 1× HBSS in each well (10× HBSS (+Ca/+Mg), #14065-049, Gibco). Typically, 8 concentrations were used with the highest concentration at 10 μM in the final assay volume followed by approximately 1:4 dilution steps. DMSO concentration was set to 0.1% in the final assay volume. The 384-well assay plate contained 20 test compounds and DMSO in control and cGAMP standard wells. The dog whole blood was collected as Na-Citrate blood (e.g., 3.8% in Monovettes from Sarstedt) and kept at 4° C. overnight until use in the assay. 80 μl of the whole blood samples were transferred to each well of the 384-well assay plates filled with compound/1×HBSS. Blood plates were kept at room temperature for 60 minutes and continuous shaking with 450 rpm, covered with the lid, but not sealed. A 10× cGAMP assay solution was diluted from a 2 mM stock solution in 1×HBSS immediately before use at room temperature. 10 μl of the 10× cGAMP/HBSS were added to the high control wells, whereas HBSS only was added to all compound and low control wells. After covering assay plates with the lid, blood plates were kept for a 4 h incubation at 37° C. in the incubator, without shaking. For the detection of IFNb in dog plasma the ELISA Kit for Canine Interferon Beta (Biotrend #SEA222Ca) was used. Whole blood assay plates were centrifuged at 1000 g for 10 minutes at 8° C. 40 μl of supernatant was transferred with a 96 well pipetting robotics from the 384 well whole blood plate to the corresponding 96 well ELISA plate, pre-filled with […] assay diluent in each well. Plates were sealed with microplate seals and kept at 4° C. overnight again. ELISA plates were brought to room temperature, followed by a 1 h incubation at 37° C. in the incubator. Detection Reagent A working solution was prepared by diluting Detection Reagent A 1:100 in Assay Reagent A. Liquid was then removed from the 96 well ELISA plate to add 100 μL Detection Reagent A working solution to each well. ELISA plates were covered with the plate sealer and incubated for 1 hour at 37° C. in the incubator. The 1× Wash buffer was prepared by diluting the 30× Wash Buffer Concentrate in H2O. Detection Reagent B working solution was prepared by diluting Detection Reagent B 1:100 in Assay Reagent B. The ELISA plates were washed three times with 350 μl wash buffer and afterwards inverted and blotted against absorbent paper to remove any liquid. 100 μL of Detection Reagent B working solution was added to each well of the ELISA plates, which are then covered with the plate sealer and incubated for 30 minutes at 37° C. in the incubator. After incubation the ELISA assay plates were washed five times with 350 μl wash buffer and were again inverted and blotted against absorbent paper to remove any remaining liquid. 90 μL of TMB Substrate was added to each well of the ELISA plates, which were then covered with the plate sealer and incubated for 15 minutes at 37° C. in the incubator. The reaction was stopped by adding 50 μL stop solution and absorbance was measured at 450 nm immediately.
For data evaluation and calculation, % control calculation of each well was based on the mean of high (cGAMP stimulated control) and mean of low (unstimulated control) controls by using the following standard 4 parameter logistic regression formula: […]
On the technique in general: ELISA stands for enzyme-linked immunosorbent assay.

Read-outs that look alike come from different tables or passages of the source.

As usually defined, the EC50 is the concentration giving half of the maximal effect. Turning to `CC(=O)N1C[C@@H]2CC[C@H]1CN2c1ccc(-n2nc(-c3cccc4nn(C)cc34)c3cccc(C)c32)cn1` (single isomer, unassigned) [Example 15], in the experiment with dog STING (dSTING), the “Delta TM, interaction with dog STING as determined by DSF (dDSF)” value (“Delta TM, interaction with dog STING” below) came to 30.0 °C. In addition, the concentration giving a half-maximal response (EC50) in the experiment on STING (Canis lupus familiaris) came to 95.1 nM.

For `Cc1cccc2c(-c3cccc4nn(C)cc34)nn(-c3ccc(N4C[C@H]5C[C@@H]4C[C@@H]5C(=O)O)nc3)c12` (single isomer, unassigned) [Example 19], the “Delta TM, interaction with dog STING” value in the experiment with dog STING (dSTING) was found to be 33.5 °C. For the same compound, the EC50 in the experiment on STING (Canis lupus familiaris) is 278 nM.

Take `CC(=O)N1C[C@H]2C[C@@H]1CN2c1ccc(-n2nc(-c3cccc4nn(C)cc34)c3cccc(C)c32)cn1` [Example 11, 1-[(1R,4R)-5-(5-{2″,7-dimethyl-1H,2″H-[3,4″-biindazol]-1-yl}pyridin-2-yl)-2,5-diazabicyclo[2.2.1]heptan-2-yl]ethan-1-one]: the “Delta TM, interaction with dog STING” value in the experiment with dog STING (dSTING) stood at 28.3 °C. Further, in the experiment with STING, the EC50 was found to be 620 nM.

Regarding `Cc1cccc2c(-c3cccc4nn(C)cc34)nn(-c3ccc(N4C[C@H]5CC[C@@H]4C[C@@H]5C(=O)O)nc3)c12` (single isomer, unassigned) [Example 8], the “Delta TM, interaction with dog STING” value in the experiment with dog STING (dSTING) was found to be 24.8 °C.

Turning to `Cc1cccc2c(-c3cccc4nn(C)cc34)nn(-c3ccc(N4C[C@H]5CC[C@@H]4C[C@H]5C(=O)O)nc3)c12` (single isomer, unassigned) [Example 10], the “Delta TM, interaction with dog STING” value in the experiment on dog STING (dSTING) worked out at 35.8 °C. The EC50 with STING (Canis lupus familiaris) is 185 nM.

`Cc1cccc2c(-c3cccc4nn(C)cc34)nn(-c3ccc(N4CC5CCC4CC5C(=O)O)nc3)c12` (stereo not shown) [Example 6, 2-(5-{2′,7-dimethyl-1H,2′H-[3,4′-biindazol]-1-yl}pyridin-2-yl)-2-azabicyclo[2.2.2]octane-5-carboxylic acid]: the “Delta TM, interaction with dog STING” value in the experiment with dog STING (dSTING) amounted to 34.0 °C. Besides, the concentration for a half-maximal effect (EC50) in the experiment with STING (Canis lupus familiaris) was found to be 417 nM.

For the compound `Cc1cccc2c(-c3cccc4nn(C)cc34)nn(-c3ccc(N4CC5CC4CC5C(=O)O)nc3)c12` (stereo not shown) [Example 4, 2-(5-{2″,7-dimethyl-1H,2″H-[3,4″-biindazol]-1-yl}pyridin-2-yl)-2-azabicyclo[2.2.1]heptane-5-carboxylic acid], the “Delta TM, interaction with dog STING” value with dog STING (dSTING) was 29.0 °C. For the same compound, the EC50 in the experiment with STING (Canis lupus familiaris) is 704 nM.

On to “(1S,4R,5R)-2-(5-{2″,7-dimethyl-1H,2″H-[3,4″-biindazol]-1-yl}pyridin-2-yl)-2-azabicyclo[2.2.1]heptane-5-carboxylic acid and 1R,4S,5S)-2-(5-{2′,7-dimethyl-1H,2′H-[3,4′-biindazol]-1-yl}pyridin-2-yl)-2-azabicyclo[2.2.1]heptane-5-carboxylic acid [Example 5]”, for which the “Delta TM, interaction with dog STING” value with dog STING (dSTING) was determined as 33.5 °C. For the same compound, the EC50 in the experiment with STING was found to be 529 nM.

In the case of `Cc1cccc2c(-c3cccc4nn(C)cc34)nn(-c3ccc(N4C[C@@H]5C[C@H]4C[C@H]5C(=O)O)nc3)c12` (single isomer, unassigned) [Example 18], the “Delta TM, interaction with dog STING” value in the experiment with dog STING (dSTING) amounted to 31.5 °C. In the experiment on STING (Canis lupus familiaris), the concentration for a half-maximal effect (EC50) was determined as 519 nM.

On to `Cc1cccc2c(-c3cccc4nn(C)cc34)nn(-c3ccc(N4CC[C@@H](CC(=O)O)C4)nc3)c12` [Example 2, 2-[(3S)-1-(5-{2″,7-dimethyl-1H,2″H-[3,4″-biindazol]-1-yl}pyridin-2-yl)pyrrolidin-3-yl]acetic acid], for which, in the experiment with dog STING (dSTING), the “Delta TM, interaction with dog STING” value amounted to 33.3 °C. The EC50 in the experiment on STING (Canis lupus familiaris) was found to be 212 nM.

With `Cc1cccc2c(-c3cccc4nn(C)cc34)nn(-c3ccc(N4CCOC(CC(=O)O)C4)nc3)c12` (stereo not shown) [Example 3, 2-[4-(5-{2′,7-dimethyl-1H,2′H-[3,4′-biindazol]-1-yl}pyridin-2-yl)morpholin-2-yl]acetic acid], in the experiment on dog STING (dSTING), the “Delta TM, interaction with dog STING” value was found to be 26.1 °C. In addition, the EC50 in the experiment on STING (Canis lupus familiaris) stood at 3060 nM.

Consider `Cc1cccc2c(-c3cccc4nn(C)cc34)nn(-c3ccc(N4C[C@@H]5CC[C@H]4C[C@H]5C(=O)O)nc3)c12` (single isomer, unassigned) [Example 7], for which the “Delta TM, interaction with dog STING” value with dog STING (dSTING) was 15.5 °C.

Regarding `CC(=O)N1C[C@H]2CC[C@@H]1CN2c1ccc(-n2nc(-c3cccc4nn(C)cc34)c3cccc(C)c32)cn1` (single isomer, unassigned) [Example 14], in the experiment with dog STING (dSTING), the “Delta TM, interaction with dog STING” value is 23.8 °C. In the experiment on STING (Canis lupus familiaris), the EC50 stood at 2920 nM.

With `Cc1cccc2c(-c3cccc4nn(C)cc34)nn(-c3ccc(N4CC[C@H](CC(=O)O)C4)nc3)c12` [Example 1, 2-[(3R)-1-(5-{2″,7-dimethyl-1H,2″H-[3,4″-biindazol]-1-yl}pyridin-2-yl)pyrrolidin-3-yl]acetic acid], in the experiment on STING (Canis lupus familiaris), the EC50 came out at 308 nM.
